From patent US8017558B2, “Carboxamides for controlling micro-organisms in plant and material protection” (priority 2005, dated 2011)
One block for each compound: values may come before it.

What was measured:
[1] = logP determination by HPLC on reversed-phase column (C 18), EEC Directive 79/831 Annex V.A8; assay type: physicochemical; details: for chromatographic logP: reversed-phase HPLC column (C 18)
Experimental: The logP values given in the Tables and Preparation Examples above are determined in accordance with EEC Directive 79/831 Annex V.A8 by HPLC (High Performance Liquid Chromatography) on a reversed-phase column (C 18). Temperature: 43° C. The determination is carried out in the acidic range at pH 2.3 using the mobile phases 0.1% aqueous phosphoric acid and acetonitrile; linear gradient from 10% acetonitrile to 90% acetonitrile. The determination is carried out in the neutral range at pH 7.5 using the mobile phases 0.01-molar aqueous phosphate buffer solution and acetonitrile; linear gradient from 10% acetonitrile to 90% acetonitrile. Calibration is carried out using unbranched alkan-2-ones (having 3 to 16 carbon atoms), with known logP values (determination of the logP values by the retention times using linear interpolation between two successive alkanones).

[2] = test system: Sphaerotheca fuliginea; assay: Sphaerotheca Test (cucumber)/protective; assay type: in vivo; details: protective spray, application rate 100 ppm, evaluation 7 days after inoculation
Experimental: Sphaerotheca Test (Cucumber)/Protective
To produce a suitable preparation of active compound, 1 part by weight of active compound is mixed with the stated amounts of solvents and emulsifier, and the concentrate is diluted with water to the desired concentration.
To test for protective activity, young plants are sprayed with the active compound preparation at the stated application rate. After the spray coating has dried on, the plants are inoculated with an aqueous spore suspension of Sphaerotheca fuliginea. The plants are then placed in a greenhouse at about 23° C. and a relative atmospheric humidity of about 70%.
Evaluation is carried out 7 days after the inoculation. 0% means an efficacy which corresponds to that of the control, whereas an efficacy of 100% means that no infection is observed.

[3] = test system: Venturia inaequalis; assay: Venturia Test (apple)/protective; assay type: in vivo; details: protective spray, application rate 100 ppm, evaluation 10 days after inoculation
Experimental: Venturia Test (Apple)/Protective
(§1) To produce a suitable preparation of active compound, 1 part by weight of active compound is mixed with the stated amounts of solvents and emulsifier and the concentrate is diluted with water to the desired concentration. To test for protective activity, young plants are sprayed with the active compound preparation at the stated application rates. After the spray coating has dried on, the plants are inoculated with an aqueous conidia suspension of the apple scab pathogen Venturia inaequalis and then remain in an incubation cabin at about 20° C. and 100% relative atmospheric humidity for 1 day. The plants are then placed in a greenhouse at about 21° C. and a relative atmospheric humidity of about 90%. Evaluation is carried out 10 days after the inoculation. 0% means an efficacy which corresponds to that of the control, whereas an efficacy of 100% means that no infection is observed.

[4] = test system: Botrytis cinerea; assay: Botrytis Test (bean)/protective; assay type: in vivo; details: protective spray, application rate 250 ppm, evaluation 2 days after inoculation
Experimental: Botrytis Test (Bean)/Protective
To produce a suitable preparation of active compound, 1 part by weight of active compound is mixed with the stated amounts of solvents and emulsifier and the concentrate is diluted with water to the desired concentration. To test for protective activity, young plants are sprayed with the active compound preparation at the stated application rate. After the spray coating has dried on, 2 small pieces of agar colonized by Botrytis cinerea are placed onto each leaf. The inoculated plants are placed in a dark chamber at about 20° C. and 100% relative atmospheric humidity. The size of the infected areas on the leaves is evaluated 2 days after the inoculation. 0% means an efficacy which corresponds to that of the control, whereas an efficacy of 100% means that no infection is observed.

[5] = test system: Uromyces appendiculatus; assay: Uromyces Test (bean)/protective; assay type: in vivo; details: protective spray, application rate 100 ppm, evaluation 10 days after inoculation
Experimental: Uromyces Test (Bean)/Protective
as §1, with “rate.” for “rates.”, “spore” for “conidia”, “bean rust” for “apple scab”, “Uromyces appendiculatus” for “Venturia inaequalis”, “cabinet” for “cabin”

[6] = test system: Alternaria solani; assay: Alternaria Test (tomato)/protective; assay type: in vivo; details: protective spray, application rate 500 ppm, evaluation 7 days after inoculation
Experimental: Alternaria Test (Tomato)/Protective
To produce a suitable preparation of active compound, 1 part by weight of active compound is mixed with the stated amounts of solvent and emulsifier and the concentrate is diluted with water to the desired concentration. To test for protective activity, young tomato plants are sprayed with the active compound preparation at the stated application rate. 1 day after the treatment, the plants are inoculated with a spore suspension of Alternaria solani and then remain at 100% relative atmospheric humidity and 20° C. for 24 h. The plants then remain at 96% relative atmospheric humidity and a temperature of 20° C. Evaluation is carried out 7 days after the inoculation. 0% means an efficacy which corresponds to that of the control, whereas an efficacy of 100% means that no infection is observed.

[7] = test system: Pyrenophora teres; assay: Pyrenophora teres Test (barley)/protective; assay type: in vivo; details: protective spray, application rate 1000 ppm, evaluation 8 days after inoculation
Experimental: Pyrenophora teres Test (Barley)/Protective
(§2) To produce a suitable preparation of active compound, 1 part by weight of active compound is mixed with the stated amounts of solvent and emulsifier and the concentrate is diluted with water to the desired concentration. To test for protective activity, young plants are sprayed with the active compound preparation at the stated application rate. After the spray coating has dried on, the plants are sprayed with a conidia suspension of Pyrenophora teres. The plants remain in an incubation cabin at 20° C. and 100% relative atmospheric humidity for 48 hours. The plants are then placed in a greenhouse at a temperature of about 20° C. and a relative atmospheric humidity of about 80%. Evaluation is carried out 8 days after the inoculation. 0% means an efficacy which corresponds to that of the control, whereas an efficacy of 100% means that no infection is observed.

[8] = test system: Puccinia recondita; assay: Puccinia Test (wheat)/protective; assay type: in vivo; details: protective spray, application rate 1000 ppm, evaluation 10 days after inoculation
Experimental: Puccinia Test (Wheat)/Protective
as §2, with “of Puccinia recondita.” for “of Pyrenophora teres.”, “about 80% to promote the development of rust pustules.” for “about 80%.”, “out 10” for “out 8”

[9] = pH 2.3, 0.1% aqueous phosphoric acid/acetonitrile gradient, 43° C.

Structure (SMILES): C#CCSC(=Nc1ccccc1C1CC2CCC1C2)c1cn(C)nc1C(F)F (stereo not drawn) [Compound 8]
logP (pH 2.3) [1, 9]: 4.65

Structure (SMILES): Cn1cc(C(=Nc2ccccc2C2CC3CCC2C3)SCSC#N)c(C(F)F)n1 (stereo not drawn) [Compound 7]
logP (pH 2.3) [1, 9]: 4.55

Structure (SMILES): COCCSC(=Nc1ccccc1C1CC2CCC1C2)c1cn(C)nc1C(F)F (stereo not drawn) [Compound 3]
logP (pH 2.3) [1, 9]: 4.62

Structure (SMILES): CCCCCCCCCCCCSC(=Nc1ccccc1C1CC2CCC1C2)c1cn(C)nc1C(F)F (stereo not drawn) [Compound 13]
logP (pH 2.3) [1, 9]: 7.36

Structure (SMILES): Cn1cc(C(=Nc2ccccc2C2CC3CCC2C3)SCc2ccc(Cl)nc2)c(C(F)F)n1 (stereo not drawn) [Compound 12]
logP (pH 2.3) [1, 9]: 4.95

Structure (SMILES): Cn1cc(C(=Nc2ccccc2C2CC3CCC2C3)SCCO)c(C(F)F)n1 (stereo not drawn) [Compound 10]
logP (pH 2.3) ([1]; pH 2.3): 3.23 | Efficacy in % [2]: 100% | Efficacy in % [3]: 100% | Efficacy in % [4]: 100% | Efficacy in % [5]: 100% | Efficacy in % [6]: 100%

Structure (SMILES): CS/C(=N\c1ccccc1C1CC2CCC1C2)c1cn(C)nc1C(F)F (stereo not drawn) [Compound 9, methyl N-(2-bicyclo[2.2.1]hept-2-ylphenyl)-3-(difluoromethyl)-1-methyl-1H-pyrazole-4-carbimidothioate]
chromatographic logP [1, 9]: 4.75

Structure (SMILES): CCC1(C(=O)SC(=Nc2ccccc2C2CC3CCC2C3)c2cn(C)nc2C(F)F)C(C)C1(Cl)Cl (stereo not drawn) [Compound 19]
logP (pH 2.3) ([1]; pH 2.3): 6.52 | Efficacy in % [3]: 99% | Efficacy in % [5]: 96% | Efficacy in % [6]: 90% | Efficacy in % [7]: 92% | Efficacy in % [8]: 93%

Structure (SMILES): Cn1cc(C(=Nc2ccccc2C2CC3CCC2C3)SCC#N)c(C(F)F)n1 (stereo not drawn) [Compound 6]
logP (pH 2.3) [1, 9]: 4.15

Structure (SMILES): Cn1cc(C(=Nc2ccccc2C2CC3CCC2C3)SC(=O)C2(C)CCCCC2)c(C(F)F)n1 (stereo not drawn) [Compound 20]
logP (pH 2.3) ([1]; pH 2.3): 6.66 | Efficacy in % [2]: 100% | Efficacy in % [3]: 100% | Efficacy in % [5]: 99% | Efficacy in % [6]: 80% | Efficacy in % [7]: 100% | Efficacy in % [8]: 100%

Structure (SMILES): CCOC(=O)CSC(=Nc1ccccc1C1CC2CCC1C2)c1cn(C)nc1C(F)F (stereo not drawn) [Compound 11]
logP (pH 2.3) ([1]; pH 2.3): 4.66 | Efficacy in % [2]: 100% | Efficacy in % [3]: 100% | Efficacy in % [4]: 100% | Efficacy in % [5]: 100% | Efficacy in % [6]: 95% | Efficacy in % [7]: 100% | Efficacy in % [8]: 100%

Structure (SMILES): Cn1cc(C(=Nc2ccccc2C2CC3CCC2C3)SC(=O)C(C)(C)C)c(C(F)F)n1 (stereo not drawn) [Compound 18]
logP (pH 2.3) [1, 9]: 5.81

The remaining lines, values ahead:

chromatographic logP [1, 9]: 3.66
Structure (SMILES): Cn1cc(C(=NNc2ccccc2)Nc2ccccc2C2CC3CCC2C3)c(C(F)F)n1 (stereo not drawn) [II-8, N-(2-bicyclo[2.2.1]hept-2-ylphenyl)-3-(difluoromethyl)-1-methyl-N′-phenyl-1H-pyrazole-4-carbohydrazonamide]

logP (at pH 7.5) ([1]; pH 7.5, 0.01-molar aqueous phosphate buffer/acetonitrile gradient, 43° C.): 3.70 (at pH 7.5)
Structure (SMILES): Cc1nn(C)c(F)c1C(=S)Nc1ccccc1C(C)CC(C)(C)C (stereo not drawn) [II-1]

chromatographic logP [1, 9]: 3.66
Structure (SMILES): Cn1cc(C(=S)Nc2ccccc2C2CC3CCC2C3)c(C(F)F)n1 (stereo not drawn) [II-7, N-(2-bicyclo[2.2.1]hept-2-ylphenyl)-3-(difluoromethyl)-1-methyl-1H-pyrazole-4-thiocarboxamide]

logP (pH 2.3) [1, 9]: 2.88
Structure (SMILES): Cn1cc(C(=NO)Nc2ccccc2C2CC3CCC2C3)c(C(F)F)n1 (stereo not drawn) [II-9]
